Experimental data taken from EPA's CvTdb concentration-time database.

How the values were obtained:
[1] = test system: Rat; test: concentration in brain after dosing; settings: 0.2 h; dosed: 2-Methyltetrahydrofuran; 40 mg/kg; iv; Male; Harlan Sprague Dawley
[2] = test system: Rat; test: concentration in plasma after dosing; settings: 0.75 h; dosed: 2-Methyltetrahydrofuran; 40 mg/kg; iv; Male; Harlan Sprague Dawley
[3] = test system: Rat; test: concentration in plasma after dosing; settings: 0.75 h; dosed: 2-Methyltetrahydrofuran; 40 mg/kg; iv; Male; Harlan Sprague Dawley; remark: listed apart in the source
[4] = test system: Rat; test: concentration in brain after dosing; settings: 0.5 h; dosed: Fluorotelomer alcohol 8+2; 80 mg/kg; oral; Female; Harlan Sprague Dawley
[5] = test system: Rat; test: concentration in liver after dosing; settings: 6 h; dosed: Fluorotelomer alcohol 8+2; 80 mg/kg; oral; Female; Harlan Sprague Dawley
[6] = test system: Rat; test: concentration in brain after dosing; settings: 6 h; dosed: Fluorotelomer alcohol 8+2; 24 mg/kg; oral; Male; Harlan Sprague Dawley
[7] = test system: Rat; test: concentration in brain after dosing; settings: 1 h; dosed: Fluorotelomer alcohol 8+2; 80 mg/kg; oral; Female; Harlan Sprague Dawley
[8] = test system: Rat; test: concentration in liver after dosing; settings: 12 h; dosed: Fluorotelomer alcohol 8+2; 24 mg/kg; oral; Male; Harlan Sprague Dawley
[9] = test system: Rat; test: concentration in plasma after dosing; settings: dosed: Fluorotelomer alcohol 8+2, 12 mg/kg, oral, Male, Harlan Sprague Dawley
[10] = test system: Rat; test: concentration in kidney after dosing; settings: 0.5 h; dosed: Fluorotelomer alcohol 8+2; 24 mg/kg; oral; Male; Harlan Sprague Dawley
[11] = test system: Rat; test: concentration in plasma after dosing; settings: dosed: 678-39-7, 40 mg/kg, iv, Male, F344
[12] = test system: Rat; test: concentration in kidney after dosing; settings: 12 h; dosed: Fluorotelomer alcohol 8+2; 24 mg/kg; oral; Male; Harlan Sprague Dawley
[13] = test system: Rat; test: concentration in plasma after dosing; settings: dosed: Fluorotelomer alcohol 8+2, 12 mg/kg, oral, Male, Harlan Sprague Dawley; remark: listed apart in the source
[14] = test system: Rat; test: concentration in liver after dosing; settings: 0.5 h; dosed: Perfluorohexanoic Acid; 80 mg/kg; oral; Male; Harlan Sprague Dawley
[15] = test system: Rat; test: concentration in liver after dosing; settings: 6 h; dosed: Perfluorohexanoic Acid; 80 mg/kg; oral; Female; Harlan Sprague Dawley
[16] = test system: Rat; test: concentration in brain after dosing; settings: 1 h; dosed: Perfluorohexanoic Acid; 80 mg/kg; oral; Female; Harlan Sprague Dawley
[17] = test system: Rat; test: concentration in liver after dosing; settings: 1 h; dosed: Perfluorohexanoic Acid; 80 mg/kg; oral; Female; Harlan Sprague Dawley
[18] = test system: Rat; test: concentration in plasma after dosing; settings: 0.5 h; dosed: Perfluorohexanoic Acid; 80 mg/kg; oral; Male; Harlan Sprague Dawley
[19] = test system: Rat; test: concentration in kidney after dosing; settings: 1 h; dosed: Perfluorohexanoic Acid; 80 mg/kg; oral; Female; Harlan Sprague Dawley
[20] = test system: Rat; test: concentration in plasma after dosing; settings: 0.25 h; dosed: Perfluorohexanoic Acid; 40 mg/kg; iv; Male; F344
[21] = test system: Rat; test: concentration in plasma after dosing; settings: 1.5 h; dosed: Perfluorohexanoic Acid; 40 mg/kg; iv; Male; F344
[22] = test system: Rat; test: concentration in plasma after dosing; settings: 0.75 h; dosed: Perfluorohexanoic Acid; 80 mg/kg; oral; Male; Harlan Sprague Dawley
[23] = test system: Rat; test: concentration in plasma after dosing; settings: dosed: Perfluorohexanoic Acid, 40 mg/kg, iv, Male, F344
[24] = test system: Rat; test: concentration in plasma after dosing; settings: 1 h; dosed: Perfluorohexanoic Acid; 40 mg/kg; iv; Female; Harlan Sprague-Dawley
[25] = test system: Rat; test: concentration in plasma after dosing; settings: dosed: Perfluorohexanoic Acid, 40 mg/kg, iv, Male, F344; remark: listed apart in the source
[26] = test system: Rat; test: concentration in plasma after dosing; settings: dosed: Perfluorohexanoic Acid, 80 mg/kg, oral, Male, Harlan Sprague Dawley
[27] = test system: Rat; test: concentration in plasma after dosing; settings: 1 h; dosed: Gemfibrozil; 50 mg/kg; oral; Male; Sprague-Dawley
[28] = test system: Rat; test: concentration in plasma after dosing; settings: 4 h; dosed: Gemfibrozil; 50 mg/kg; oral; Male; Sprague-Dawley
[29] = test system: Rat; test: concentration in plasma after dosing; settings: 0.25 h; dosed: Gemfibrozil; 4.29 mg/kg; oral; Male; Sprague-Dawley
[30] = test system: Rat; test: concentration in plasma after dosing; settings: 10 min; dosed: Gemfibrozil; 4.29 mg/kg; oral; Male; Sprague-Dawley
[31] = test system: Rat; test: concentration in plasma after dosing; settings: 5 min; dosed: Gemfibrozil; 4.29 mg/kg; oral; Male; Sprague-Dawley
[32] = test system: Rat; test: concentration in liver after dosing; settings: 24 h; dosed: Perfluorooctane Sulfonate; 2 mg/kg; oral; Female; Harlan Sprague Dawley
[33] = test system: Rat; test: concentration in liver after dosing; settings: 24 h; dosed: Perfluorooctane Sulfonate; 20 mg/kg; oral; Female; F344
[34] = test system: Rat; test: concentration in brain after dosing; settings: 1848 h; dosed: Perfluorooctane Sulfonate; 20 mg/kg; oral; Male; Harlan Sprague Dawley
[35] = test system: Rat; test: concentration in brain after dosing; settings: 6 h; dosed: Perfluorooctane Sulfonate; 20 mg/kg; oral; Male; Harlan Sprague Dawley
[36] = test system: Rat; test: concentration in liver after dosing; settings: 3360 h; dosed: Perfluorooctane Sulfonate; 2 mg/kg; oral; Female; Harlan Sprague Dawley
[37] = test system: Rat; test: concentration in liver after dosing; settings: 24 h; dosed: Perfluorooctane Sulfonate; 2 mg/kg; oral; Female; Harlan Sprague Dawley; remark: listed apart in the source
[38] = test system: Rat; test: concentration in plasma after dosing; settings: dosed: Perfluorooctane Sulfonate, 2 mg/kg, oral, Female, Harlan Sprague Dawley
[39] = test system: Rat; test: concentration in kidney after dosing; settings: 24 h; dosed: Perfluorooctane Sulfonate; 2 mg/kg; oral; Female; Harlan Sprague Dawley
[40] = test system: Rat; test: concentration in kidney after dosing; settings: 1848 h; dosed: Perfluorooctane Sulfonate; 2 mg/kg; oral; Female; Harlan Sprague Dawley

CC1CCCO1 (configuration not stated) [2-Methyltetrahydrofuran]
Settings | concentration in brain [ng/mL] | concentration in plasma [ng/mL]
[1] | 26500 | –
[2] | – | 22000
[3] | – | 29200

O=C(O)CCC(F)(F)C(F)(F)C(F)(F)C(F)(F)C(F)(F)C(F)(F)C(F)(F)F [Fluorotelomer acid 7+3]
Settings | concentration in brain [ng/g] | concentration in kidney [ng/g] | concentration in liver [ng/g]
[4] | 152 | – | –
[5] | – | – | 9210
[6] | 179 | – | –
[7] | 277 | – | –
[8] | – | – | 1400
[10] | – | 198 | –
[12] | – | 573 | –

Settings | concentration in plasma [ng/mL]
[9], 0.25 h | 152
[9], 6 h | 522
[11], 3 h | 3090
[11], 5 min | 25.4
[13], 0.5 h | 133
[13], 9 h | 218

O=C(O)C(F)(F)C(F)(F)C(F)(F)C(F)(F)C(F)(F)F [Perfluorohexanoic Acid]
Settings | concentration in brain [ng/g] | concentration in kidney [ng/g] | concentration in liver [ng/g] | concentration in plasma [ng/mL]
[14] | – | – | 67900 | –
[15] | – | – | 6260 | –
[16] | 1340 | – | – | –
[17] | – | – | 39700 | –
[18] | – | – | – | 105000
[19] | – | 76600 | – | –
[20] | – | – | – | 14700
[21] | – | – | – | 175
[22] | – | – | – | 134000
[24] | – | – | – | 1240

Settings | concentration in plasma [ng/mL]
[23], 0.5 h | 14500
[23], 12 h | 35.7
[25], 3 h | 1450
[25], 5 min | 35700
[26], 5 min | 35400
[26], 9 h | 3240

Cc1ccc(C)c(OCCCC(C)(C)C(=O)O)c1 [Gemfibrozil]
Settings | concentration in plasma [ng/mL]
[27] | 7680
[28] | 5620
[29] | 1640
[30] | 606
[31] | 485

O=S(=O)([O-])C(F)(F)C(F)(F)C(F)(F)C(F)(F)C(F)(F)C(F)(F)C(F)(F)C(F)(F)F [Perfluorooctane Sulfonate]
Settings | concentration in brain [ng/g] | concentration in kidney [ng/g] | concentration in liver [ng/g]
[32] | – | – | 20600
[33] | – | – | 167000
[34] | 2130 | – | –
[35] | 4440 | – | –
[36] | – | – | 1350
[37] | – | – | 22900
[39] | – | 14600 | –
[40] | – | 2450 | –

[38]
Settings | concentration in plasma [ng/mL]
12 h | 6280
528 h | 2270
